# Measured values published in patent publication US11174267B2, “Spiroindolinones and therapeutic uses thereof” (The Regents of the University of California, priority 2015, dated 2021).
# What was measured:
# NIH 3T3 cells = assay: Cytotoxicity, LDH assay; type: cell-based; settings: concentrations up to 1.5 mM
# Protocol: The cytotoxicity of spiroindoline Compounds 1, 8 and 25 were tested against NIH 3T3 cells at concentrations up to 1.5 mM (FIG. 13) using an LDH assay.
# [1] = test system: cdr1/CDR1 heterozygous mutant and cdr1/cdr1 deletion strain; assay: Azole-synergizer effect in cdr1 mutants; type: cell-based, Candida albicans; settings: with FLC
# Source text: Strains and growth condition. The wild-type Candida albicans strains used were SC5314 and CaSS1. Cdr1 heterozygous were from Merck Sharp & Dohme Corp. Double Barcoded (DBC) library of heterozygous Candida albicans mutants (version 2013A). Cdr1 deficient mutant was obtained by counterselection of the GRACE library strain on 5-Fluoroorotic Acid (5-FOA) containing plate. Clinical isolated resistant C. albicans were from Dr. David Rogers. Cryptococcus neoformans var. grubii H99 (ATCC 208821) and Candida glabrata BG2, a fluconazole-resistant clinical isolate, were used. Yeast strains were cultured at 30° C. in synthetic complete (SC) medium containing 2% glucose.
# Manually Screening. Of the DBC library was carried out in 96-well flat bottom plates. Briefly, BDC library grown in YPD agar were transferred to SC medium in 96-well flat bottom plates with a 96-well pin tool and grown overnight at 30° C. Cell cultures were diluted 1:800 in fresh SC medium with or without compounds and incubated at 30° C. for 24 h. Cell growth was measured with Tecan GENios Plus microplate reader (Tecan, Switzerland).
# Small number of outliers in the HIP profiling indicates few off-targets for the compound. To avoid missing genes due to the bias of PCR and sequencing, a manual screening of the DBC library with Compound 1 and FLC in 96 well plates was also carried out.
# [2] = test system: heterozygous deletion C. albicans strains; assay: Whole genome Haploinsufficiency Profiling (HIP); type: cell-based, Candida albicans; settings: 0.05 μM Compound 1 + 0.125 μg/ml FLC vs. 0.125 μg/ml FLC
# Protocol: Whole genome Haploinsufficiency Profiling (HIP) analysis. Haplo-Insufficiency Profiling (HIP) with the Double BarCoded (DBC) library was used. A pool of 5,470 heterozygous deletion C. albicans strains constructed by Merck, to identify potential targets for the azole-synergizer, Compound 1. The collection, obtained from Merck Sharp & Dohme Corp in 96-well plates, were transferred to YPD (2% peptone, 1% yeast extract, and 2% glucose) agar plates and grown at 30° C. for 72 h. All colonies were collected from plates and pooled in SC medium, add glycerol to 15% and adjust to the final concentration of 50 OD600 nm per milliliter, store in aliquot at −80° C.
# Stock pools were diluted into SC medium to an OD600 nm of 0.0875 and drug treatments were performed in a 1 ml SC medium in 24-well plates. The appropriate drug treatment concentrations were determined before screening. […]
# Bioinformatics analysis of HIP. Sequencing reads were first separated by their experimental tags into treatments and then filtered by UPTAG or DNTAG. Among the reads mapped with experimental tags, more than 95% can be filtered exclusively by UPTAG or DNTAGs. Filtered reads were mapped to an artificial genome containing each individual gene in the library identified by UPTAG or DNTAG using bowtie 1.0.
# Read counts per gene were calculated using a weighted arithmetic mean of mapped UPTAG and DNTAG read counts. […]
# Cdr1 = target: T1, Cdr1 (Candida albicans, UniProt Q5ANA3); assay: Efflux of Rhodamine 6G (Cdr1 efflux assay); type: cell-based; settings: C. albicans SC5314; R6G 10 μM; Compound 1 0.3, 3 and 30 μM
# T1 construct: endogenous in cells; host or cells: Candida albicans SC5314 (wild type)
# T1 sequence (Q5ANA3 whole entry): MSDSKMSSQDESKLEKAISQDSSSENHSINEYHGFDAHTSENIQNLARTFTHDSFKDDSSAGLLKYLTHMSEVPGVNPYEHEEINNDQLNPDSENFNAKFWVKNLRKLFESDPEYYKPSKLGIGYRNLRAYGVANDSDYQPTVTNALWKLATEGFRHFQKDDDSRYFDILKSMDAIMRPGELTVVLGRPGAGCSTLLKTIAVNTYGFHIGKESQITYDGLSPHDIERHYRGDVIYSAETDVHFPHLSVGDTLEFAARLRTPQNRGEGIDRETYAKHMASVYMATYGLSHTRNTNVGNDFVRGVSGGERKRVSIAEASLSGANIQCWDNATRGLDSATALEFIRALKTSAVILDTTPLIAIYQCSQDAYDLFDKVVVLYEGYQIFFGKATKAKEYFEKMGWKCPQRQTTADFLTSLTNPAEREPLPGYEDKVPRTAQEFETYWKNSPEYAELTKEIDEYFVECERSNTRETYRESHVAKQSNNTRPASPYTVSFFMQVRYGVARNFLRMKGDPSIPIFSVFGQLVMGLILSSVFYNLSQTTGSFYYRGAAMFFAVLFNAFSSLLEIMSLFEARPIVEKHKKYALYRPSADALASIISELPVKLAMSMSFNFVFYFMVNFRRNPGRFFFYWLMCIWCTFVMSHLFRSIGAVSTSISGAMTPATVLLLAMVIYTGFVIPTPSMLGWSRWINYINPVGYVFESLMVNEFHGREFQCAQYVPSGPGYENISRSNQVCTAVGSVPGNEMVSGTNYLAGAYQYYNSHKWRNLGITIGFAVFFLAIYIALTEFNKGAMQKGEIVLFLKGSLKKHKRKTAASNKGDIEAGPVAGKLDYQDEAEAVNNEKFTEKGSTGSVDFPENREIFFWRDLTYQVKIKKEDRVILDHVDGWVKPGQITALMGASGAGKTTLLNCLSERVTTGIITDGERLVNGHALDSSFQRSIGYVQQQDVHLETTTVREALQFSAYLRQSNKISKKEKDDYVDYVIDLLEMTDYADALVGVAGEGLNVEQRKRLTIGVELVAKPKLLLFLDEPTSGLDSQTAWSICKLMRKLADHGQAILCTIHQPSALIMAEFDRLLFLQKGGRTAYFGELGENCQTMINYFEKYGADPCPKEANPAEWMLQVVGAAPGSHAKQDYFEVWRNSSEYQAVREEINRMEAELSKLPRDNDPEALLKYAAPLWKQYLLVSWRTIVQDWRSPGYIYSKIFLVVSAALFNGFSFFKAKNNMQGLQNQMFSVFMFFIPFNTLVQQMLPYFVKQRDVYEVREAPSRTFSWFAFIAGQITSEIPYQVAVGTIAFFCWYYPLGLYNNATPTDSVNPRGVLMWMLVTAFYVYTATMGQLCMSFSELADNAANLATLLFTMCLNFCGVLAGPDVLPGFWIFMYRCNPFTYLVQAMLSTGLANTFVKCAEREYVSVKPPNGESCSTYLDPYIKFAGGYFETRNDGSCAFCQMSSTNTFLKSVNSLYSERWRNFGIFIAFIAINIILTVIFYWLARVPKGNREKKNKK
# Protocol: Efflux of Rhodamine 6 G. Efflux of R6G was measured generally base on a method described previously by Shukla (cited below). Briefly, C. albicans SC5314 grown overnight at 30° C. in SC medium were transferred to fresh SC medium with a 1:50 dilution and grown at 30° C. with constant shaking for about 5 h. Cells were then pelleted, washed twice with phosphate-buffered saline (PBS), and resuspended in PBS as about 3 OD600 nm. The cells were then deenergized for 45 min in […] 2-deoxy-D-glucose. The cells were pelleted, washed and resuspended in PBS as 3 OD600 nm, to which compounds (30 μM or noted) and R6G (10 μM) were added successively and incubated at 30° C. for 40 min. Cells were collected, washed and resuspended in PBS with or without compounds and incubated at 30° C. Two percent glucose was added at time point 20 min to initiate the energy-dependent efflux. Samples were taken out every 10 min and the absorption of the supernatant was detected at 527 nm.
# To further determine if the spiroindolinone functions by inhibiting Cdr1, the activity of efflux pumps was determined by monitoring the efflux of R6G, a fluorescent compound that is used for Cdr1 efflux assay in C. albicans. […] Extracellular R6G concentrations were quantified by measuring the absorbance of the supernatant at 527 nm. […]
smiles,measurement,setting,value
"Cc1c(Cl)ccc2c1NC(=O)[C@]21N[C@H](Cc2ccccc2)[C@@H]2C(=O)N(c3ccc(F)cc3)C(=O)[C@@H]21 (racemic) [Compound 1, (±)-(3R,3′R,3a′R,6a'S)-3′-benzyl-6-chloro-5′-(4-fluorophenyl)-7-methyl-2′,3′,3a′,6a′-tetrahydro-4′H-spiro[indoline-3,1′-pyrrolo[3,4-c]pyrrole]-2,4′,6′(5′H)-trione]",cytotoxicity,NIH 3T3 cells,weak to negligible cytotoxicity
same,effect as azole-synergizer in cdr1 mutants,[1],significantly enhanced in the cdr1/CDR1 heterozygous mutant but blocked in the cdr1/cdr1 deletion strain
same,"HIP profiling, mutants with significant change in abundance",[2],cdr1/CDR1 emerged as the only mutant that showed a significant change in abundance
same,energy dependent efflux of R6G,Cdr1,almost totally inhibited
